Experimental data reported in US20230250262A1, “CELLULOSIC PARTICLE” (FUJIFILM Business Innovation Corp., priority 2022, published 2023).
Counter-ions that a name gives are not always drawn.

Assay: Octanol/water partition coefficient (O/W coefficient) of the second component
Conditions: 1-octanol/water 1/1 by mass; value of the second component species
Procedure: In this context, the octanol/water partition coefficient is a value calculated through the following.
A sample is dissolved in a mixture of octanol and water in a ratio by mass of 1/1, and the concentration of the substance in the octanol (Co) and the concentration of the substance in the water (Cw) are measured; then the octanol/water partition coefficient (O/W coefficient) is calculated according to equation (1) below.
O/W coefficient=Log(Co/Cw) (1)
The concentration of the substance in the octanol (Co) and the concentration of the substance in the water (Cw) are measured as follows.
The OECD test guideline is followed. More specifically, a sample is dissolved in a mixture of 1-octanol and water in a ratio by mass of 1/1, and the resulting solution is centrifuged until it completely separates into two layers. From the 1-octanol layer, an appropriate amount of octanol solution is pipetted. The tip of a syringe, into which air has been drawn in advance, is inserted into the water layer through the 1-octanol layer while the air is ejected, and the aqueous solution is sampled quickly.
For each solution, the test concentration is determined using an ion chromatograph (Metrohm, 930 Compact IC).

SMILES | Second component Octanol/water partition coefficient
CCCCCCCCCCCC(=O)NCC(C)O (stereo not shown) [Add22, lauric acid monoisopropanolamide] | 4
CCCCCCCCCCCCCCCCCC(=O)N(CCO)CCO [Add21, stearic acid diethanolamide] | 11
CCCCCCC(CCCC)(CCCC)Cc1ccc(O)cc1 [Add33, 4-2,2-dibutyl-octylphenol] | 21
CCCCCCCC/C=C\CCCCCCCC(=O)N(CCO)CCO [Add1, oleic acid diethanolamide] | 6

Same assay, conditions: 1-octanol/water (1/1 by mass)

SMILES | logP
CC(C)COC(=O)CCCCC(=O)OCC(C)C [Add11, diisobutyl adipate, reference compound] | 4
CCCCCCCCCCCCc1ccc(O)cc1 [Add32, 4-dodecylphenol] | 5
CCOC(=O)CC(O)(CC(=O)OCC)C(=O)OCC [Add10, triethyl citrate, reference compound] | 0.9
